Results from PubChem BioAssay (NCI).
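Five concentrations, 48 hours, 96-well plates. TGI: concentration producing complete growth inhibition.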

Legend:
Assay in all cases: DTP human tumour cell line panel, 48 h
ACHN renal = test system: ACHN renal
EKVX NSCLC = test system: EKVX NSCLC
SK-MEL-5 melanoma = test system: SK-MEL-5 melanoma
PC-3 prostate = test system: PC-3 prostate
M14 melanoma = test system: M14 melanoma
HS 578T breast = test system: HS 578T breast
SK-OV-3 ovarian = test system: SK-OV-3 ovarian
NCI/ADR-RES ovarian = test system: NCI/ADR-RES ovarian
K-562 leukemia = test system: K-562 leukemia
SF-268 CNS = test system: SF-268 CNS
HCT-15 colon = test system: HCT-15 colon
NCI-H522 lung = test system: NCI-H522 lung
SN12C renal = test system: SN12C renal
MALME-3M melanoma = test system: MALME-3M melanoma
UO-31 renal = test system: UO-31 renal
HCT-116 colon = test system: HCT-116 colon
CAKI-1 renal = test system: CAKI-1 renal
SK-MEL-28 melanoma = test system: SK-MEL-28 melanoma
RPMI-8226 leukemia = test system: RPMI-8226 leukemia
LOX IMVI melanoma = test system: LOX IMVI melanoma
HOP-62 NSCLC = test system: HOP-62 NSCLC
SNB-75 CNS = test system: SNB-75 CNS
DU-145 prostate = test system: DU-145 prostate
BT-549 breast = test system: BT-549 breast
OVCAR-8 ovarian = test system: OVCAR-8 ovarian
SR leukemia = test system: SR leukemia
KM12 colon = test system: KM12 colon
MDA-MB-435 = test system: MDA-MB-435
U251 CNS = test system: U251 CNS
MDA-N = test system: MDA-N
SW-620 colon = test system: SW-620 colon
HCC-2998 colon = test system: HCC-2998 colon
RXF 393 renal = test system: RXF 393 renal
UACC-257 melanoma = test system: UACC-257 melanoma
SF-539 CNS = test system: SF-539 CNS
HL-60(TB) leukemia = test system: HL-60(TB) leukemia
OVCAR-3 ovarian = test system: OVCAR-3 ovarian
T-47D breast = test system: T-47D breast
OVCAR-5 ovarian = test system: OVCAR-5 ovarian
UACC-62 melanoma = test system: UACC-62 melanoma
HT29 colon = test system: HT29 colon
786-0 renal = test system: 786-0 renal
MDA-MB-231 breast = test system: MDA-MB-231 breast
A549 NSCLC = test system: A549 NSCLC
TK-10 renal = test system: TK-10 renal
CCRF-CEM leukemia = test system: CCRF-CEM leukemia
COLO 205 colon = test system: COLO 205 colon
NCI-H460 lung = test system: NCI-H460 lung
SF-295 CNS = test system: SF-295 CNS
OVCAR-4 ovarian = test system: OVCAR-4 ovarian
NCI-H226 lung = test system: NCI-H226 lung
SNB-19 CNS = test system: SNB-19 CNS
A498 renal = test system: A498 renal
HOP-92 NSCLC = test system: HOP-92 NSCLC
IGROV1 ovarian = test system: IGROV1 ovarian
SK-MEL-2 melanoma = test system: SK-MEL-2 melanoma
NCI-H23 lung = test system: NCI-H23 lung
MOLT-4 leukemia = test system: MOLT-4 leukemia
MCF7 breast = test system: MCF7 breast

Work on CSC1(SC2=NCCN2)SC2(NCCN2)S1 yielded a TGI (ACHN renal) of 33.2 µM, a TGI (EKVX NSCLC) of 40.5 µM and a TGI (SK-MEL-5 melanoma) of 35 µM. The TGI (PC-3 prostate) was 34.3 µM, the TGI (M14 melanoma) was 44.3 µM and the TGI (HS 578T breast) was 69.1 µM. For the same molecule, the TGI (SK-OV-3 ovarian) was 42 µM, the TGI (NCI/ADR-RES ovarian) was > 91.6 µM and the TGI (K-562 leukemia) was 81.2 µM. The TGI (SF-268 CNS) was 40.3 µM, the TGI (HCT-15 colon) was 41.2 µM and the TGI (NCI-H522 lung) was 27.1 µM. The TGI (SN12C renal) was 41.4 µM, the TGI (MALME-3M melanoma) was 34.3 µM and the TGI (UO-31 renal) was 32.2 µM. For the same molecule, the TGI (HCT-116 colon) was 31.7 µM, the TGI (CAKI-1 renal) was 27 µM and the TGI (SK-MEL-28 melanoma) was 40.1 µM. It also gave a TGI (RPMI-8226 leukemia) of 13.4 µM, a TGI (LOX IMVI melanoma) of 25.7 µM and a TGI (HOP-62 NSCLC) of 34.4 µM. It also gave a TGI (SNB-75 CNS) of 32.2 µM, a TGI (DU-145 prostate) of 28.2 µM and a TGI (BT-549 breast) of 54.9 µM. It also gave a TGI (OVCAR-8 ovarian) of 43 µM, a TGI (SR leukemia) of 37.7 µM and a TGI (KM12 colon) of 5.37 µM. The TGI (MDA-MB-435) was 31.3 µM, the TGI (U251 CNS) was 32.8 µM and the TGI (MDA-N) was 49.1 µM. It also gave a TGI (SW-620 colon) of 51.6 µM, a TGI (HCC-2998 colon) of 29.8 µM and a TGI (RXF 393 renal) of 20.4 µM. For the same molecule, the TGI (UACC-257 melanoma) was 46.6 µM, the TGI (SF-539 CNS) was 56.5 µM and the TGI (HL-60(TB) leukemia) was 55.9 µM. It also gave a TGI (OVCAR-3 ovarian) of 30.6 µM, a TGI (T-47D breast) of 5.91 µM and a TGI (OVCAR-5 ovarian) of 39.6 µM. It also gave a TGI (UACC-62 melanoma) of 32.7 µM, a TGI (HT29 colon) of 38.3 µM and a TGI (786-0 renal) of 14.2 µM. It also gave a TGI (MDA-MB-231 breast) of 38.6 µM, a TGI (A549 NSCLC) of 40.1 µM and a TGI (TK-10 renal) of 18.6 µM. For the same molecule, the TGI (CCRF-CEM leukemia) was 26.1 µM, the TGI (COLO 205 colon) was 40.5 µM and the TGI (NCI-H460 lung) was 45.4 µM. For the same molecule, the TGI (SF-295 CNS) was 67.6 µM, the TGI (OVCAR-4 ovarian) was 44.6 µM and the TGI (NCI-H226 lung) was 56.7 µM. The TGI (SNB-19 CNS) was 41.9 µM, the TGI (A498 renal) was 27.9 µM and the TGI (HOP-92 NSCLC) was 28.4 µM. The TGI (IGROV1 ovarian) was 35.7 µM, the TGI (SK-MEL-2 melanoma) was 39.4 µM and the TGI (NCI-H23 lung) was 33.4 µM. It also gave a TGI (MOLT-4 leukemia) of 52.9 µM and a TGI (MCF7 breast) of 12.8 µM.
